Measured values from patent US9642889B2, “Macrocyclic inhibitors of Flaviviridae viruses” (Selcia Limited, priority 2012, dated 2017).
Like-named read-outs stand apart in the source and are kept apart here.

What was measured:
[1] = system: Huh-7 HCV replicon cells (1b replicon); assay: anti-HCV activity in Huh-7 cell line harboring a HCV replicon (luciferase readout); format: cell-based; conditions: for Replicon 1b % inhibition at 1 μM: 1b replicon, 1 μM compound
[2] = target: cyclophilin A (Homo sapiens, UniProt P62937); assay: Cyclophilin A TR-FRET competitive binding assay; conditions: competition with CsA-Cy5 for His-tagged CypA, two-hour incubation
Chain of cyclophilin A (P62937 whole entry, species assumed): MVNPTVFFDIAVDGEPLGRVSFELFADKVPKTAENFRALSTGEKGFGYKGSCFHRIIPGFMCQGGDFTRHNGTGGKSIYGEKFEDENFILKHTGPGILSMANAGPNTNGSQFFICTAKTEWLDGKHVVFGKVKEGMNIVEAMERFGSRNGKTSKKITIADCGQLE
Protocol: Cyclophilin A TR-FRET Competitive Binding Assay
Inhibitor potency was measured using a competitive binding assay with a time-resolved fluorescence resonance energy transfer (TR-FRET) readout. […] An IC50 value was calculated using a four-parameter logistic fit.

[3] = Hepatitis C virus, Huh-7, 72 h, inhibition of viral replication, Huh-7 HCV replicon cells, 3 days, read-out: EC50
[4] = Hepatitis C virus, Huh-7, read-out: Replicon 1b % inhibition at 1 μM, 1b replicon, 1 μM compound
[5] = inhibition of viral replication, Huh-7 HCV replicon cells, 3 days, read-out: EC50

SMILES | EC50 [1, 3] [µM] | inhibition at 1 µM [1, 4] [%] | IC50 [2] [µM] | further results
CC(=O)CC[C@@H]1C/C=C/c2cc3cc(ccc3cn2)[C@@H](C)NC(=O)[C@@H]2CCCN(N2)C(=O)[C@H](C)NC(=O)[C@H](C(C)C)OC1=O (mixture of isomers) [Compound 14] | < 1 | 100 | < 0.1 | –
CC(CC[C@@H]1C/C=C/c2cc3cc(ccc3cn2)[C@@H](C)NC(=O)[C@@H]2CCCN(N2)C(=O)[C@H](C)NC(=O)[C@H](C(C)C)OC1=O)=NOCCN1CCOCC1 (mixture of isomers) [Compound 15] | < 1 | 98 | < 0.1 | –
CC(C)[C@@H]1OC(=O)[C@H](CCC(C)N(C)C)C/C=C/c2cc3cc(ccc3cn2)[C@@H](C)NC(=O)[C@@H]2CCCN(N2)C(=O)[C@H](C)NC1=O (mixture of isomers) [Compound 16] | 1.1 to 10 | 20 | < 0.1 | –
CC(C)[C@@H]1OC(=O)C2(/C=C/c3ccc4ccc(nc4c3)[C@@H](C)NC(=O)[C@@H]3CCCN(N3)C(=O)[C@H](C)NC1=O)CCCCO2 (mixture of isomers) [Compound 49] | < 1 | 100 | < 0.1 | –
CC(C)[C@@H]1OC(=O)C2(/C=C/c3ccc4ccc(nc4c3)[C@@H](C)NC(=O)[C@]3(C)CCCN(N3)C(=O)[C@H](C)NC1=O)CCC(O)CC2 (mixture of isomers) [Compound 94] | < 1 | 94 | < 0.1 | –
CC1/C=C/c2ccc3ccc(nc3c2)[C@@H](C)OC(=O)[C@@H]2CCCN(N2)C(=O)[C@H](C)NC(=O)[C@H](C(C)C)OC1 (single isomer, unassigned) [Compound 27] | < 1 | 92 | < 0.1 | –
CC1/C=C/c2ccc3ccc(nc3c2)[C@@H](C)OC(=O)[C@@H]2CCCN(N2)C(=O)[C@H](C)NC(=O)[C@H](C(C)C)OC1 (single isomer, unassigned) [Compound 28] | – | – | < 0.1 | Replicon 1b % inhibition at 1 μM ([1]; 1 µM): 99%; EC50 [1, 5]: < 1 µM
CC1/C=C/c2ccc3ccc(nc3c2)[C@@H](C)NC(=O)[C@@H]2CCCN(N2)C(=O)[C@H](C)NC(=O)[C@H](C(C)C)OC1 (single isomer, unassigned) [Compound 34] | < 1 | 91 | < 0.1 | –
CC1/C=C/c2ccc3ccc(nc3c2)[C@@H](C)NC(=O)[C@@H]2CCCN(N2)C(=O)[C@H](C)NC(=O)[C@H](C(C)C)OC1 (single isomer, unassigned) [Compound 35] | < 1 | 88 | < 0.1 | –
COCC1NC(=O)C(C(C)C)OC(=O)C(C)(C)C=Cc2ccc3ccc(nc3c2)C(C)NC(=O)C2CCCN(N2)C1=O (single isomer, unassigned) [Compound 39] | 1.1 to 10 | 16 | 0.101 to 1 | –
CC(C)[C@@H]1OC(=O)C2(/C=C/c3ccc4ccc(nc4c3)[C@@H](C)NC(=O)[C@@H]3CCCN(N3)C(=O)[C@H](C)NC1=O)COCCO2 (single isomer, unassigned) [Compound 43] | – | – | < 0.1 | Replicon 1b % inhibition at 1 μM [1]: 99%; EC50 [1, 5]: < 1 µM
CC(C)[C@@H]1OC(=O)C2(/C=C/c3ccc4ccc(nc4c3)[C@@H](C)NC(=O)[C@@H]3CCCN(N3)C(=O)[C@H](C)NC1=O)CN(C(=O)OC(C)(C)C)CCO2 (single isomer, unassigned) [Compound 45] | – | – | < 0.1 | –
CC(C)[C@@H]1OC(=O)C2(/C=C/c3ccc4ccc(nc4c3)[C@@H](C)NC(=O)[C@@H]3CCCN(N3)C(=O)[C@H](C)NC1=O)CCCOC2 (single isomer, unassigned) [Compound 50] | < 1 | 100 | < 0.1 | –
CC(C)[C@@H]1OC(=O)C2(/C=C/c3ccc4ccc(nc4c3)[C@@H](C)NC(=O)[C@@H]3CCCN(N3)C(=O)[C@H](C)NC1=O)CCCOC2 (single isomer, unassigned) [Compound 51] | < 1 | 100 | < 0.1 | –
CC1NC(=O)C(C(C)C)OC(=O)C2(/C=C/c3ccc4ccc(nc4c3)C(C)NC(=O)C3CCCN(N3)C1=O)CCC(O)CC2 (single isomer, unassigned) [Compound 74] | < 1 | – | – | Replicon 1b % inhibition at 1 μM ([1]; 1 µM): 100%
CC1NC(=O)C(C(C)C)OC(=O)C2(/C=C/c3ccc4ccc(nc4c3)C(C)NC(=O)C3CCCN(N3)C1=O)CCC(O)CC2 (single isomer, unassigned) [Compound 75] | – | – | – | Replicon 1b % inhibition at 1 μM ([1]; 1 µM): 100%; EC50 [1, 5]: < 1 µM
CC1NC(=O)C(C(C)C)OC(=O)C2(/C=C/c3ccc4ccc(nc4c3)C(C)NC(=O)C3CCCN(N3)C1=O)CCC(O)CC2 (single isomer, unassigned) [Compound 76] | – | – | – | Replicon 1b % inhibition at 1 μM ([1]; 1 µM): 69%; EC50 [1, 5]: < 1 µM
CC1NC(=O)C(C(C)C)OC(=O)C2(/C=C/c3ccc4ccc(nc4c3)C(C)NC(=O)C3CCCN(N3)C1=O)CCC(O)CC2 (single isomer, unassigned) [Compound 77] | – | – | – | Replicon 1b % inhibition at 1 μM ([1]; 1 µM): 56%; EC50 [1, 5]: < 1 µM
CC(C)[C@@H]1OC(=O)C2(/C=C/c3ccc4ccc(nc4c3)[C@@H](C)NC(=O)[C@@H]3CCCN(N3)C(=O)[C@H](C)NC1=O)COC(C)(C)CO2 (single isomer, unassigned) [Compound 100] | – | – | < 0.1 | Replicon 1b % inhibition at 1 μM [1]: 100%; EC50 [1, 5]: < 1 µM

SMILES | EC50 [1, 3] [µM] | inhibition at 1 µM [1, 4] [%] | IC50 [2] [µM] | further results
CC1NC(=O)C(C2CC2)OC(=O)C2(C=Cc3ccc4ccc(nc4c3)C(C)NC(=O)C3CCCN(N3)C1=O)CCC(O)C2 (single isomer, unassigned) [Compound 103] | < 1 | – | < 0.1 | Replicon 1b % inhibition at 1 μM ([1]; 1 µM): 90%
CC1NC(=O)C(C2CC2)OC(=O)C2(C=Cc3ccc4ccc(nc4c3)C(C)NC(=O)C3CCCN(N3)C1=O)CCC(O)C2 (single isomer, unassigned) [Compound 104] | – | – | < 0.1 | Replicon 1b % inhibition at 1 μM ([1]; 1 µM): 56%; EC50 [1, 5]: < 1 µM
CC1NC(=O)C(C2CC2)OC(=O)C2(C=Cc3ccc4ccc(nc4c3)C(C)NC(=O)C3CCCN(N3)C1=O)CCC(O)C2 (single isomer, unassigned) [Compound 105] | – | – | 0.101 to 1 | Replicon 1b % inhibition at 1 μM ([1]; 1 µM): 2%; EC50 [1, 5]: 1.1 to 10 µM
CO[C@@H]1CC/C=C/c2cccc(c2)[C@@H](C)NC(=O)[C@@H]2CCCN(N2)C(=O)[C@H](C)NC(=O)[C@H](C(C)C)OC(=O)[C@@H]1C [Compound 1] | < 1 | 97 | < 0.1 | –
CO[C@@H]1/C=C/c2cc3cc(ccc3cn2)[C@@H](C)NC(=O)[C@@H]2CCCN(N2)C(=O)[C@H](C)NC(=O)[C@H](C(C)C)OC(=O)[C@@H]1C [Compound 2] | < 1 | 98 | < 0.1 | –
CC(C)[C@@H]1OC(=O)C/C=C/c2cc3cc(ccc3cn2)[C@@H](C)NC(=O)[C@@H]2CCCN(N2)C(=O)[C@H](C)NC1=O [Compound 3] | < 1 | 89 | < 0.1 | –
CC(C)[C@@H]1OC(=O)C(C)(C)/C=C/c2ccc3ccc(nc3c2)[C@@H](C)OC(=O)[C@@H]2CCCN(N2)C(=O)[C@H](C)NC1=O [Compound 19] | – | – | < 0.1 | –
CC(C)[C@H]1C(=O)N[C@@H](C)C(=O)N2CCC[C@H](N2)C(=O)O[C@H](C)c2ccc3cnc(cc3c2)/C=C/C(C)(C)C(=O)N1C [Compound 22] | – | – | < 0.1 | –
CC(C)[C@@H]1OC(=O)C(C)(C)/C=C/c2ccc3ccc(nc3c2)CN(C)C(=O)[C@@H]2CCCN(N2)C(=O)[C@H](C)NC1=O [Compound 33] | – | – | < 0.1 | –
COC[C@@]1(C)/C=C/c2ccc3ccc(nc3c2)[C@@H](C)NC(=O)[C@@H]2CCCN(N2)C(=O)[C@H](C)NC(=O)[C@H](C(C)C)OC1=O [Compound 36] | – | – | < 0.1 | –
CC(C)[C@@H]1OC(=O)C(C)(C)/C=C/c2ccc3ccc(nc3c2)CNC(=O)[C@@H]2CCCN(N2)C(=O)[C@H](C)NC1=O [Compound 37] | – | – | < 0.1 | –
COC[C@@]1(C)/C=C/c2ccc3ccc(nc3c2)[C@@H](C)N(C)C(=O)[C@@H]2CCCN(N2)C(=O)[C@H](C)NC(=O)[C@H](C(C)C)OC1=O [Compound 38] | – | – | < 0.1 | –
CC(C)[C@@H]1OC(=O)C2(/C=C/c3ccc4ccc(nc4c3)[C@@H](C)NC(=O)[C@@H]3CCCN(N3)C(=O)[C@H](C)NC1=O)COCCOC2 [Compound 57] | < 1 | 100 | – | –
COC[C@]1(C)/C=C/c2ccc3ccc(nc3c2)[C@@H](C)NC(=O)[C@@H]2CCCN(N2)C(=O)[C@H](C)NC(=O)[C@H](C(C)C)OC1=O [Compound 58] | – | – | < 0.1 | –
C[C@@H]1NC(=O)[C@H](C2CCC2)OC(=O)C2(/C=C/c3ccc4ccc(nc4c3)[C@@H](C)NC(=O)[C@@H]3CCCN(N3)C1=O)COCOC2 [Compound 64] | – | – | – | EC50 ([1]; Hepatitis C virus, Huh-7, 72 h): < 1 µM; inhibition at 1 µM ([1]; Hepatitis C virus, Huh-7, read-out: Replicon 1b % inhibition at 1 μM): 100%
CC(C)[C@@H]1OC(=O)C(C)(C)/C=C/c2cc3cc(ccc3cn2)[C@@H](C)NC(=O)[C@@H]2CCCN(N2)C(=O)[C@H](C)NC1=O [Compound 69] | < 1 | 100 | – | –
CC(C)[C@@H]1OC(=O)C2(/C=C/c3ccc4ccc(nc4c3)[C@@H](C)NC(=O)[C@@H]3CCCN(N3)C(=O)[C@H](C)NC1=O)CCOCC2 [Compound 88] | < 1 | 100 | – | –
COC1CCC2(/C=C/c3ccc4ccc(nc4c3)[C@@H](C)NC(=O)[C@@H]3CCCN(N3)C(=O)[C@H](C)NC(=O)[C@H](C(C)C)OC2=O)CC1 (stereo partly shown) [Compound 92] | < 1 | 100 | – | –
CC(C)[C@@H]1OC(=O)C2(/C=C/c3ccc4ccc(nc4c3)[C@@H](C)NC(=O)[C@@H]3CCCN(N3)C(=O)[C@H](C)NC1=O)CCS(=O)(=O)CC2 [Compound 106] | < 1 | 95 | – | –
